For assay [1], the target named is T1, Tyrosine-protein phosphatase non-receptor type 1 (Homo sapiens, UniProt P18031).
T1 sequence (P18031 whole entry): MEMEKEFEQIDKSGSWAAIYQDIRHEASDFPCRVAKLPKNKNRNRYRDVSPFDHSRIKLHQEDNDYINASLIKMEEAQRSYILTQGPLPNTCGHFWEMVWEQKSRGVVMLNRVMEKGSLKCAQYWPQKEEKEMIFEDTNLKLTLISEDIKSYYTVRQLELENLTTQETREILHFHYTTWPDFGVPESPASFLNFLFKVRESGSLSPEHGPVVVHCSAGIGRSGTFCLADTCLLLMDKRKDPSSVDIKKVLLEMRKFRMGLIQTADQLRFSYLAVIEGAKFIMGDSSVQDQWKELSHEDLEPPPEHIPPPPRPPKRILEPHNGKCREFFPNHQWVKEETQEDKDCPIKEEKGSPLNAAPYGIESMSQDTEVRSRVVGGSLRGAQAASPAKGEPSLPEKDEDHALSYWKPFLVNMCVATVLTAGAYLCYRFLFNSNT
Put plainly: PTP1B Inhibitory Assay. The note with it: pH 6. As for the experimental part:
PTP1B activity was measured by adding 2mM p-NPP and PTP1B in a 50 mM citrate buffer (pH 6.0, 0.1 M NaCl, 1 mMEDTA, and 1 mM dithiothreitol), with or without tested compounds. The plate was pre-incubated at 37 °C for 10 min, and then 50 μL of p-NPP in buffer was added. After incubating at 37 °C for 30 min, the reaction was then terminated with 1 N NaOH.

Assay [2] deals with Acetylcholinesterase (Homo sapiens, UniProt P22303). Put plainly: Acetylcholinesterase Inhibitory Assay. The note with it: pH 8; 25 °C. As for the experimental part: Briefly, 140 μL of sodium phosphate buffer (pH 8.0), 20 μL of each tested compound with different concentrations (4, 20, and 100 μM) and 20 μL enzyme solution were mixed and incubated at room temperature for 15 min. The reactions were initiated by the addition of 10 μL of 0.01 M 5,5'-dithiobis(2-nitrobenzoic acid) (DTNB) and 10 μL of 0.075 ATCI. […] The reaction was independently experimented for three times and recorded in 96-well microplates using a microplate reader (VersaMax).

The target in assay [3] is T1, Tyrosine-protein phosphatase non-receptor type 1. As to the kind of experiment: Kinetic Analysis. As to the method: The reaction mixtures contained in various different concentrations of p-NPP as a PTP1B substrate in the presence or absence of the active compound. The kinetic analysis was evaluated for Michaelis-Menten plot, Lineweaver-Burk plot, and Dixon plot. The Michaelis constant (Km), maximum velocity (Vmax), and the inhibition constants (Ki) were determined by using Sigma Plot software (13.0 software, SPCC Inc., Chicago, IL, USA).

Sequence of Acetylcholinesterase (P22303 whole entry): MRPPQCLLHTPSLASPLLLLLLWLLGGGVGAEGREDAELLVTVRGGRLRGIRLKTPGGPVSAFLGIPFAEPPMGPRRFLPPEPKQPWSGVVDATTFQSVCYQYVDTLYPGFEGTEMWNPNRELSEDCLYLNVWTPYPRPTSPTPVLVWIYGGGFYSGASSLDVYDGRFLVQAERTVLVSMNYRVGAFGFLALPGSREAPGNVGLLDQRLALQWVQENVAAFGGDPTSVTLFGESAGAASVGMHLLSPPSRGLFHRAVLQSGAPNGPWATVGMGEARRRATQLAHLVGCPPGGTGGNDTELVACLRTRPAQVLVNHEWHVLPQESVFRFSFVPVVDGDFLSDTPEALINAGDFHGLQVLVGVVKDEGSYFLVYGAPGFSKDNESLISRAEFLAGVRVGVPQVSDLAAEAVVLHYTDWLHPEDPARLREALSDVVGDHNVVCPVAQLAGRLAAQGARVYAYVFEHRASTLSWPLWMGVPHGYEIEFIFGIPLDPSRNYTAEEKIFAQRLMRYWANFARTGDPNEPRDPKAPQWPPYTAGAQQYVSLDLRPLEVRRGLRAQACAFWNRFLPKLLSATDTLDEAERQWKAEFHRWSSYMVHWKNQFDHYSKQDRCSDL

As to `O=c1cc(-c2ccc(O)c(O)c2)oc2cc(O[C@@H]3O[C@H](CO)[C@@H](O)[C@H](O)[C@H]3O)cc(O)c12`, the IC50 in assay [1] worked out at 71.6 µM; in assay [2], 74.7 µM.

For `O=c1c(O)c(-c2ccc(O)c(O)c2)oc2cc(O)cc(O)c12` [2-(3,4-dihydroxyphenyl)-3,5,7-trihydroxy-chromone;hydrate], the IC50 in assay [2] came to 72.8 µM.

With `O=c1c(O[C@@H]2O[C@H](CO)[C@@H](O)[C@H](O)[C@H]2O)c(-c2ccc(O)c(O)c2)oc2cc(O)cc(O)c12` [2-(3,4-dihydroxyphenyl)-5,7-dihydroxy-3-[(2S,3R,4S,5S,6R)-3,4,5-trihydroxy-6-(hydroxymethyl)oxan-2-yl]oxychromen-4-one], the IC50 stood at 100 µM in assay [1] and 84.8 µM in assay [2].

As for `COC(=O)[C@H]1O[C@@H](Oc2cc(O)c3c(=O)cc(-c4ccc(O)cc4)oc3c2)C(O[C@@H]2OC(CO)[C@@H](O)C(O)[C@@H]2O)[C@H]1O` (some centres not stated) [Agriflavone (2)], the IC50 in assay [1] stood at 100 µM; in assay [2], 63.4 µM.

Turning to `O=C(O[C@H]1OC(CO)[C@@H](O)[C@@H]2OC(=O)c3cc(O)c(O)c(c3O)-c3c(O)c(O)cc(c3O)C(=O)OC12)c1cc(O)c(O)c(O)c1` (some centres not stated) [Agritannin (1)], the results for the 50% inhibitory concentration (IC50) in assay [1] and in assay [2] were 17 µM and 60.2 µM, respectively.

Regarding `O=c1oc2c(O)c(O)cc3c(=O)oc4c(O)c(O)cc1c4c23` [Elagic Acid], the half-inhibitory concentration (IC50) in assay [1] worked out at 7.73 µM; in assay [2] it was 100 µM. The Ki in assay [3] was found to be 2.8 µM.

On to `O=c1c(O[C@@H]2O[C@H](CO)[C@@H](O)[C@H](O)[C@H]2O)c(-c2ccc(O)cc2)oc2cc(O)cc(O)c12` [Kaempferol 3-O-β-D-glucoside (6)], for which the IC50 in assay [1] amounted to 60.7 µM; in assay [2], 89.6 µM.

Regarding `O=c1c(O)c(-c2ccc(O)cc2)oc2cc(O[C@@H]3O[C@H](CO)[C@@H](O)[C@H](O)[C@H]3O)cc(O)c12` [Kaempferol 7-O-β-D-glucoside (4)], the 50% inhibitory concentration (IC50) in assay [1] came to 100 µM; in assay [2] it was 63.9 µM.

Turning to `O=C(O)[C@H]1O[C@@H](Oc2cc(O)c3c(=O)c(O)c(-c4ccc(O)cc4)oc3c2)[C@H](O)[C@@H](O)[C@@H]1O` [Kaempferol 7-O-β-D-glucuronide (5)], the IC50 was determined as 48.3 µM in assay [1] and 64 µM in assay [2].

On to `O=c1cc(-c2ccc(O)c(O[C@@H]3O[C@H](CO)[C@@H](O)[C@H](O)[C@H]3O)c2)oc2cc(O)cc(O)c12` [Luteolin 3'-O-β-D-glucoside (17)], for which the IC50 in assay [1] turned out to be 100 µM; in assay [2], 74.6 µM.

On to `O=C(O)[C@H]1O[C@@H](Oc2cc(O)c3c(=O)cc(-c4ccc(O)c(O)c4)oc3c2)[C@H](O)[C@@H](O)[C@@H]1O` [Luteolin 7-O-β-D-glucuronide (14)], for which the 50% inhibitory concentration (IC50) in assay [1] is 38.1 µM; in assay [2] it was 88.1 µM.

For `O=C(OCCCCOc1cc(O)c2c(=O)cc(-c3ccc(O)c(O)c3)oc2c1)[C@H]1O[C@@H](O)[C@H](O)[C@@H](O)[C@@H]1O` [Luteolin 7-O-β-D-glucuronide butyl ester (16)], the figures for the IC50 in assay [1] and in assay [2] were 100 µM and 76.9 µM, respectively.

With `O=C(OCOc1cc(O)c2c(=O)cc(-c3ccc(O)c(O)c3)oc2c1)[C@H]1O[C@@H](O)[C@H](O)[C@@H](O)[C@@H]1O` [Luteolin 7-O-β-D-glucuronide methyl ester (15)], the figures for the concentration for half-maximal inhibition (IC50) in assay [1] and in assay [2] were 49.1 µM and 65.9 µM, respectively.

On to `O=c1cc(-c2ccc(O)cc2)oc2cc(O[C@@H]3O[C@H](CO)[C@@H](O)[C@H](O)[C@H]3O)cc(O)c12` [NSC-407303], for which the IC50 in assay [1] and in assay [2] was 100 µM each time.

Consider `O=c1cc(-c2ccc(O)cc2)oc2cc(O)cc(O)c12` [Naringenin, 18], for which the values for the half-maximal inhibitory concentration (IC50) in assay [1] and in assay [2] were 100 µM and 64.3 µM, respectively.

Turning to `O=c1c(O)c(-c2ccc(O)c(O[C@@H]3O[C@H](CO)[C@@H](O)[C@H](O)[C@H]3O)c2)oc2cc(O)cc(O)c12` [Quercetin 3'-O-β-D-glucoside (12)], the 50% inhibitory concentration (IC50) in assay [1] turned out to be 100 µM; in assay [2], 89.2 µM.

`O=C(O)[C@H]1O[C@@H](Oc2cc(O)c3c(=O)cc(-c4ccc(O)cc4)oc3c2)[C@H](O)[C@@H](O)[C@@H]1O` [apigenin-7-O-betaD-glucuronic acid]: the IC50 in assay [1] is 7.14 µM; in assay [2], 63 µM. Also, the inhibition constant (Ki) in assay [3] is 2.6 µM.

Consider `COc1cc(C2Oc3c(OC)cc(CCCO)cc3C2CO)ccc1O[C@@H]1OC(CO)[C@@H](O)C(O)[C@@H]1O` (stereo partly drawn) [dihydrodehydrodiconifeyl alcohol 9'-O-β-D-glucose (19)], for which the values for the 50% inhibitory concentration (IC50) in assay [1] and in assay [2] were 100 µM and 92.8 µM, respectively.

Broadly, the IC50 is the point on the concentration scale where inhibition reaches its midpoint. As a reminder, the Ki is the dissociation constant of the complex between target and ligand, obtained from inhibition or displacement. A higher Ki goes with weaker binding.
